Results reported in PMC8322138, “BRCA2 binding through a cryptic repeated motif to HSF2BP oligomers does not impact meiotic recombination” (Nature Communications, 2021).
Ends that are not written are not given here.

Tests used:
ARM domain of HSF2BP [1] = target: T1, ARM domain of HSF2BP (Homo sapiens, UniProt O75031); assay: ITC of BRCA2 fragments with HSF2BP armadillo domain; assay type: binding; conditions: for n (stoichiometry) / ΔG / −TΔS / ΔH (±error): 293 K; for affinity relative to F0: compared with the affinity measured between ARM and F0
T1 construct: The armadillo domain of HSF2BP, from aa 122 to aa 334; 6xHis-TEV (N, cleaved yes); made in house; host or cells: E. coli BL21 DE3 Rosetta2
T1 sequence (O75031 122-334): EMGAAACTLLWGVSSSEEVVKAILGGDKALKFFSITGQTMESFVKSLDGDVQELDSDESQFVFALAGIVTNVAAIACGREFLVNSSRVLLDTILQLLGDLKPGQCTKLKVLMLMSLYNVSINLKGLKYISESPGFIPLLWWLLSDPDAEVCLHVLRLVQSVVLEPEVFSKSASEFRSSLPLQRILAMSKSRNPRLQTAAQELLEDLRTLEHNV
Text: (§1) Human full-length HSF2BP WT and R200T were expressed using a pETM11 (6xHis-TEV) expression vector in E. coli BL21 DE3 Rosetta2 cells, and purified as previously reported (Brandsma et al., Cell Rep 2019). The armadillo domain of HSF2BP, from aa 122 to aa 334, which we will further name ARM, was similarly expressed using a pETM11 (6xHis-TEV) expression vector in BL21 DE3 Rosetta2 cells and purified as full-length HSF2BP.
(§2) Human BRCA2 fragment F0 was expressed using a pET-22b expression vector as a fusion protein comprising BRCA2 from aa 2213 to aa 2342 (including mutation C2332T to avoid oxidation problems), a TEV site, a GB1 and 6xHis tag, in E. coli BL21 DE3 Star cells. The BRCA2 gene was optimized for expression in bacteria and synthesized by Genscript. In addition, smaller BRCA2 fragments were produced using the same strategy: FNMR and F15X corresponding to aa 2252 to aa 2342 and aa 2291 to aa 2343, respectively. The smallest fragment F15X∆12, from aa 2312 to aa 2342, was synthesized by Genecust.
(§3) ITC experiments were performed using a high-precision VP-ITC instrument (GE Healthcare) at 293 K. To characterize the interactions between HSF2BP and BRCA2 fragments (WT, variants), the proteins were dialyzed against 25 mM Tris pH 7.5, 250 mM NaCl, 5 mM β-mercaptoethanol. The HSF2BP (or ARM domain) was in the sample cell at 10–20 μM and was titrated by BRCA2 fragments at 40–100 μM, using 10 μL injections with 210 s intervals between each injection. The first 2 μL injection was ignored in the final data analysis. The integration of the peaks corresponding to each injection. the correction for the baseline and the fit were performed using the Origin 7.0 software provided by the manufacturer, to obtain the stoichiometry (N), dissociation constant (Kd), and enthalpy of complex formation (ΔH) for each interaction. Two replicates were performed for each experiment.

ARM domain of HSF2BP [2] = target: T1, ARM domain of HSF2BP; assay: SEC-MALS of ARM free or bound to F15X; assay type: physicochemical
Procedure: Size-exclusion chromatography (SEC) coupled to MALS was used in order to measure the molecular masses of the complexes in solution. Therefore, HSF2BP and ARM proteins were loaded in the presence and absence of the BRCA2 fragment F15X on a Superdex 200 10/300 GL (GE Healthcare) using a HPLC Shimadzu system coupled to MALS/QELS/UV/RI (Wyatt Technology). The chromatography buffer was 25 mM Tris-HCl buffer, pH 7.5, 250 mM NaCl, 5 mM β-mercaptoethanol. The proteins were injected at 0.8–1 mg/ml in 100 μl. Data were analyzed using the ASTRA software; a calibration was performed with BSA as a standard.

ARM domain of HSF2BP [3] = target: T1, ARM domain of HSF2BP; assay: SEC-SAXS of ARM bound to F15X; assay type: physicochemical
Procedure: SEC coupled to SAXS is available on the SWING beamline at synchrotron SOLEIL, in order to obtain a distance distribution corresponding to each sample in solution. The free HSF2BP protein as well as the complex between ARM and F15X were analyzed using a Bio SEC-3 column (Agilent) equilibrated in 25 mM Tris-HCl buffer, pH 7.5, 250 mM NaCl, and 5 mM β-mercaptoethanol. The proteins were loaded at a concentration of 6 and 10 mg/ml, in order to observe an elution peak at an OD280nm of 1 and 1.2 AU, respectively.

HSF2BP FL = target: T2, HSF2BP FL (Homo sapiens, UniProt O75031); assay: ITC of BRCA2 fragments with full-length HSF2BP; assay type: binding; conditions: for n (stoichiometry) / ΔG / −TΔS / ΔH (±error) / affinity (in words): 293 K
T2 construct: Human full-length HSF2BP WT and R200T were expressed; 6xHis-TEV (N, cleaved yes); made in house; host or cells: E. coli BL21 DE3 Rosetta2
T2 sequence (O75031 1-334): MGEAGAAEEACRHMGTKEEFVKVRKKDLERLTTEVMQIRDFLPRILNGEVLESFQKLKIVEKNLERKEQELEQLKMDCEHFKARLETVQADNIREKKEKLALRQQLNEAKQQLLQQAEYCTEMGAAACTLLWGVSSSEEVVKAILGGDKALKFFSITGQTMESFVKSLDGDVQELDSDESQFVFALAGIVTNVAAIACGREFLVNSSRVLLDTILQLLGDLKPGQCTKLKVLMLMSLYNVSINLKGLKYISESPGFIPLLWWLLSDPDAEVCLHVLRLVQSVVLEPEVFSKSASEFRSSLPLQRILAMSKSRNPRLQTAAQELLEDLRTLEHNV
Text: as §1, §2, §3

ARM domain of HSF2BP [4] = target: T1, ARM domain of HSF2BP; assay: Analytical gel filtration of ARM with F15XΔ12; assay type: physicochemical; conditions: SEC, Superose 6 Increase 10/300, ARM to peptide ratio 1:1.2, pH 7.5
Procedure: SEC was also used to characterize ARM and ARM bound to F15XΔ12. The ARM domain was loaded on a Superose 6 Increase 10/300 (GE Healthcare) alone (at 2 mg/ml) or bound to F15XΔ12 (at 5 mg/ml, ARM to peptide ratio 1:1.2) in 25 mM Tris-HCl buffer, pH 7.5, 250 mM NaCl, and 5 mM β-mercaptoethanol. The OD values from the elution of ARM alone were multiplied by 2.5 to be compared to the OD values from the elution of ARM bound to F15XΔ12.

ARM domain of HSF2BP [5] = target: T1, ARM domain of HSF2BP; assay: 2D NMR 1H-15N HSQC of 15N-labeled F0 with ARM; assay type: binding; conditions: 15N-F0 100 μM, ARM 1:1, 950 MHz, 283 K; peaks of S2252-Q2342
Procedure: For NMR analysis, ^15N-labeled or ^15N- and ^13C-labeled BRCA2 fragments were produced in E. coli BL21 DE3 Star cells grown in M9 medium containing either 0.5 g/l ^15NH4Cl or 0.5 g/l ^15NH4Cl and 2 g/l ^13C-glucose, respectively. […]
The ^15N/^13C-labeled F0 fragment was analyzed by 3D heteronuclear NMR. in order to assign its Hn, N, Cα, Cβ, and Co chemical shifts, and identify its binding site to HSF2BP. Therefore, 3D NMR HNCA, CBCACONH, HNCACB, HNCANNH, HNCO, and HNCACO experiments were performed on a 700 MHz Bruker AVANCE NEO spectrometer equipped with a triple resonance cryogenic TCI probe at 283 K. The data were processed using Topspin 4.0 (Bruker) and analyzed using CCPNMR 2.4[49]. […] For binding studies, 2D NMR ^1H-^15N HSQC experiments were recorded on a 3-mm-diameter sample tube containing the ^15N-labeled F0 at 100 μM in the absence and presence of the ARM domain at 100 μM, on a 950 MHz Bruker Avance III spectrometer equipped with a triple resonance cryogenic TCI probe at 283 K.

[6] = pH 7.5, expt 1, error in brackets
[7] = pH 7.5, expt 2, error in brackets

CC[C@H](C)[C@H](NC(=O)[C@H](CCCNC(=N)N)NC(=O)[C@H](CC(=O)O)NC(=O)[C@H](Cc1ccccc1)NC(=O)[C@H](CCC(=O)O)NC(=O)[C@@H](N)CC(N)=O)C(=O)N[C@H](C(=O)N[C@@H](CCC(=O)O)C(=O)N[C@@H](CC(N)=O)C(=O)N[C@@H](CCC(N)=O)C(=O)N[C@@H](CCC(=O)O)C(=O)N[C@@H](CCCCN)C(=O)N[C@@H](CO)C(=O)N[C@@H](CC(C)C)C(=O)N[C@@H](CCCCN)C(=O)N[C@@H](C)C(=O)N[C@@H](CO)C(=O)N[C@@H](CCCCN)C(=O)N[C@@H](CO)C(=O)N[C@H](C(=O)N1CCC[C@H]1C(=O)N[C@@H](CC(=O)O)C(=O)NCC(=O)N[C@H](C(=O)N[C@H](C(=O)N[C@@H](CCCCN)C(=O)N[C@@H](CC(=O)O)C(=O)N[C@@H](CCCNC(=N)N)C(=O)N[C@@H](CCCNC(=N)N)C(=O)N[C@@H](CC(C)C)C(=O)N[C@@H](Cc1ccccc1)C(=O)N[C@@H](CCSC)C(=O)N[C@@H](Cc1c[nH]cn1)C(=O)N[C@@H](Cc1c[nH]cn1)C(=O)N[C@H](C(=O)N[C@@H](CO)C(=O)N[C@@H](CC(C)C)C(=O)N[C@@H](CCC(=O)O)C(=O)N1CCC[C@H]1C(=O)N[C@H](C(=O)N[C@H](C(=O)N[C@H](C(=O)N[C@H](C(=O)N1CCC[C@H]1C(=O)N[C@@H](Cc1ccccc1)C(=O)N[C@@H](CCCNC(=N)N)C(=O)N[C@H](C(=O)N[C@H](C(=O)N[C@@H](CCCCN)C(=O)N[C@@H](CCC(=O)O)C(=O)N[C@@H](CCCNC(=N)N)C(=O)N[C@@H](CCC(N)=O)C(=O)N[C@@H](CCC(=O)O)C(=O)O)[C@@H](C)O)[C@@H](C)O)C(C)C)[C@@H](C)O)[C@@H](C)O)[C@@H](C)CC)C(C)C)[C@@H](C)CC)[C@@H](C)O)[C@@H](C)O)[C@@H](C)CC [F15X]
n (stoichiometry) (ARM domain of HSF2BP [1]; pH 7.5, expt 1): 0.33
ΔG (ARM domain of HSF2BP [1]; pH 7.5, expt 1): -10.6 kcal/mol
−TΔS (ARM domain of HSF2BP [1]; pH 7.5, expt 1): -0.4 kcal/mol
ΔH (±error) (ARM domain of HSF2BP [1]; [6]): −10.2 (0.1) kcal/mol
n (stoichiometry) (ARM domain of HSF2BP [1]; pH 7.5, expt 2): 0.40
ΔG (ARM domain of HSF2BP [1]; pH 7.5, expt 2): -10.7 kcal/mol
−TΔS (ARM domain of HSF2BP [1]; pH 7.5, expt 2): -1.5 kcal/mol
ΔH (±error) (ARM domain of HSF2BP [1]; [7]): −9.2 (0.1) kcal/mol
affinity relative to F0 (ARM domain of HSF2BP [1]): about threefold higher
oligomeric state of ARM (ARM domain of HSF2BP [2]; SEC-MALS and SEC-SAXS): tetrameric
molecular weight of species in solution (ARM domain of HSF2BP [2]; SEC-MALS, Superdex 200 10/300 GL, 25 mM Tris-HCl pH 7.5, 250 mM NaCl, 5 mM β-mercaptoethanol): 94 kDa
Dmax of complex with ARM (ARM domain of HSF2BP [3]): 104 Å
Rg of complex with ARM (ARM domain of HSF2BP [3]): 34 Å
molecular weight of complex with ARM (ARM domain of HSF2BP [3]; Bio SEC-3, 25 mM Tris-HCl pH 7.5, 250 mM NaCl, theoretical mass of four ARM bound to two F15X 108 kDa): 109 kDa

DGTIKDRRLFMHHVSLEPITTVPFRTTKERQE [F15XΔ12]
n (stoichiometry) (HSF2BP FL; pH 7.5, expt 1): 0.89
ΔG (HSF2BP FL; pH 7.5, expt 1): -7.8 kcal/mol
−TΔS (HSF2BP FL; pH 7.5, expt 1): -6.1 kcal/mol
ΔH (±error) (HSF2BP FL; [6]): −1.7 (0.3) kcal/mol
n (stoichiometry) (HSF2BP FL; pH 7.5, expt 2): 0.90
ΔG (HSF2BP FL; pH 7.5, expt 2): -7.6 kcal/mol
−TΔS (HSF2BP FL; pH 7.5, expt 2): -5.8 kcal/mol
ΔH (±error) (HSF2BP FL; [7]): −1.8 (0.2) kcal/mol
affinity (in words) (HSF2BP FL; pH 7.5, listed as F15X∆12): in the micromolar range
affinity (in words) (HSF2BP FL; pH 7.5, listed as motif 2): micromolar affinity
stoichiometry (HSF2BP FL; BRCA2 peptide per HSF2BP): 1
affinity relative to F0 (weaker) (HSF2BP FL; weaker than the affinity of HSF2BP for F0): 1000 -fold
oligomerization of ARM upon binding (ARM domain of HSF2BP [4]; listed as F15X∆12): does not oligomerize
oligomerization of ARM upon binding (ARM domain of HSF2BP [4]; listed as motif 2): unable by itself to trigger oligomerization

B1: FNMR: BRCA2 fragment aa 2252 to aa 2342, recombinant (protein)
chain: SLFTCPENEEMVLSNSRIGKRRGEPLILVGEPSIKRNLLNEFDRIIENQEKSLKASKSTPDGTIKDRRLFMHHVSLEPITTVPFRTTKERQ
modifications: left off: GB1, C-terminal, cleaved | His6, C-terminal, cleaved
notes: BRCA2 fragment aa 2252 to aa 2342, recombinant
ΔG (ARM domain of HSF2BP [1]; pH 7.5, expt 1): -10.8 kcal/mol
−TΔS (ARM domain of HSF2BP [1]; pH 7.5, expt 1): -1.2 kcal/mol
ΔH (±error) (ARM domain of HSF2BP [1]; [6]): −9.6 (0.1) kcal/mol
ΔG (ARM domain of HSF2BP [1]; pH 7.5, expt 2): -10.5 kcal/mol
−TΔS (ARM domain of HSF2BP [1]; pH 7.5, expt 2): -1.1 kcal/mol
ΔH (±error) (ARM domain of HSF2BP [1]; [7]): −9.4 (0.2) kcal/mol
affinity relative to F0 (ARM domain of HSF2BP [1]): about threefold higher
decrease of HSQC peak intensities (ARM domain of HSF2BP [5]): more than 60%
